Results: patent publication US20080090805A1, “CB-1 MODULATING COMPOUNDS AND THEIR USE” (ACADIA PHARMACEUTICALS INC., priority 2005, published 2008)

target: CB1 (mutant) (Homo sapiens, UniProt P21554); experiment: R-SAT functional receptor assay, CB1 (mutant, truncated after amino acid 417); assay type: cell-based; conditions: Appendix A; R-SAT CB1; receptor form (mutant or wild-type) not stated; read-out: pIC50 (converted)
Sequence (P21554 1-417, change not shown): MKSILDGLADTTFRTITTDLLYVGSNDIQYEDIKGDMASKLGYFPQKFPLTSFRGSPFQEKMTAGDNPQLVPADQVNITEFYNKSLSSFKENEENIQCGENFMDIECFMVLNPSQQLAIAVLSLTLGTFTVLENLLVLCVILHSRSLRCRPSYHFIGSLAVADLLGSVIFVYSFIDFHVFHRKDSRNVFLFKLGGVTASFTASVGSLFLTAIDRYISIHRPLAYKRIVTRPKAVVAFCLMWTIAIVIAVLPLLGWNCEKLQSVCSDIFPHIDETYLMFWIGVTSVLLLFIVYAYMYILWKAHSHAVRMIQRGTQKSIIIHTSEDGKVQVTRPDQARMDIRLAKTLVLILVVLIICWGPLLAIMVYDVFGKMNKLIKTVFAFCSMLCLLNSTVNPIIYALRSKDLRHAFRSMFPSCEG

IC50 [nM]	Structure (SMILES)
31.6	CCCNC(=O)c1ccc2c(c1)N=C(c1ccc(Br)cc1)c1ccccc1S2 [drawing 1055]
5.01	O=C(NCc1cccc(Cl)c1)c1ccc2c(c1)N=C(C1CCCCC1)c1ccccc1S2 [drawing 637]
158	CCCCN(C)C(=O)c1ccc2c(c1)N=C(c1sccc1C)c1ccccc1S2
501	O=C(NCc1cccnc1)c1ccc2c(c1)N=C(NCc1ccc(Cl)cc1)c1ccccc1S2
158	O=C(NC1CCCCC1)c1ccc2c(c1)N=C(c1ccc(Cl)cc1)c1ccccc1S2 [drawing 844]
79.4	Cc1csc(CNC(=O)c2ccc3c(c2)N=C(c2ccc(F)cc2)c2ccccc2S3)c1 [drawing 732]
6.31	O=C(NCc1cccnc1)c1ccc2c(c1)N=C(c1ccc(Cl)c(Cl)c1)c1ccccc1S2 [drawing 669]
15.8	CCN(CCNC(=O)c1ccc2c(c1)N=C(N1CCCCC1)c1ccccc1S2)c1ccccc1 [drawing 913]
158	CCOC(=O)c1ccc(C2=Nc3cc(C(=O)NCc4cccnc4)ccc3Sc3ccccc32)cc1 [drawing 850]
20	O=C(NC1CCCCC1)c1ccc2c(c1)N=C(c1ccc(F)cc1)c1ccccc1S2 [drawing 951]
15.8	CCCNC(=O)c1ccc2c(c1)N=C(c1cccc(F)c1)c1ccccc1S2 [drawing 893]
39.8	C[C@@H]1CCC[C@H](C)N1NC(=O)c1ccc2c(c1)N=C(c1ccc(Cl)cc1)c1ccccc1S2 [drawing 1133]
2000	CCCC1=Nc2cc(C(=O)NCCN(C)C3CCCCC3)ccc2Sc2ccccc21
15.8	O=C(NCc1ccccc1)c1ccc2c(c1)N=C(C1CCCCC1)c1ccccc1S2 [drawing 877]
50.1	CC(C)CNC(=O)c1ccc2c(c1)N=C(c1ccc(Cl)cn1)c1ccc(F)cc1S2 [drawing 558]
251	O=C(NN1CCOCC1)c1ccc2c(c1)N=C(c1ccc(Cl)cc1)c1ccccc1S2
15.8	O=C(NN1CCCCC1)c1ccc2c(c1)N=C(c1ccccc1)c1ccccc1S2 [drawing 897]
15.8	CCN(CCNC(=O)c1ccc2c(c1)N=C(C1CCCCC1)c1ccccc1S2)c1ccccc1 [drawing 865]
316	O=C(NCc1cccnc1)c1ccc2c(c1)N=C(c1ccccn1)c1ccccc1S2
6.31	CCCNC(=O)c1ccc2c(c1)N=C(c1ccc(Cl)s1)c1ccccc1S2 [drawing 675]
79.4	O=C(NC1CCCCC1)c1ccc2c(c1)N=C(c1ccccc1F)c1ccccc1S2 [drawing 740]
398	COCCNC(=O)c1ccc2c(c1)N=C(c1ccccn1)c1ccccc1S2
100	CC(NC(=O)c1ccc2c(c1)N=C(c1ccc(F)cc1)c1ccccc1S2)c1ccccc1 (centres unmarked) [drawing 760]
39.8	O=C(NOc1cccc(Cl)c1)c1ccc2c(c1)N=C(C1CCCCC1)c1cc(F)ccc1S2
2.51	O=C(NCc1cccs1)c1ccc2c(c1)N=C(c1cccc(Cl)c1)c1ccccc1S2 [drawing 573]
39.8	O=C(NCCc1ccccn1)c1ccc2c(c1)N=C(c1ccc(F)cc1)c1ccccc1S2 [drawing 1145]
10	CCCNC(=O)c1ccc2c(c1)N=C(c1ccc(Cl)cc1)c1ccccc1S2 [drawing 799]

same assay, conditions: Appendix A; R-SAT CB1; receptor form not stated; relative to SR141716 (100%)

% Inhibition [%]	Structure (SMILES)
97	O=C(NC1CCCCC1)c1ccc2c(c1)N=C(c1ccc(Cl)cc1)c1ccccc1S2 [drawing 844]
108	O=C(NC1CCCCC1)c1ccc2c(c1)N=C(c1ccc(F)cc1)c1ccccc1S2 [drawing 951]

same assay, conditions: Appendix A; R-SAT CB1; receptor form not stated; relative to SR141716 (100%); read-out: % Inhibition

Emax [%]	Structure (SMILES)
89	CCCCNC(=O)c1ccc2c(c1)N=C(c1ccccc1Cl)c1ccccc1S2
128	CCCC1=Nc2cc(C(=O)NCCCN3CCCCC3CC)ccc2Sc2ccccc21 (centres unmarked)
92	CCCNC(=O)c1ccc2c(c1)N=C(c1ccc(Br)cc1)c1ccccc1S2 [drawing 1055]
112	O=C(NCc1cccc(Cl)c1)c1ccc2c(c1)N=C(C1CCCCC1)c1ccccc1S2 [drawing 637]
72	CCCCN(C)C(=O)c1ccc2c(c1)N=C(c1sccc1C)c1ccccc1S2
76	O=C(NCc1cccnc1)c1ccc2c(c1)N=C(NCc1ccc(Cl)cc1)c1ccccc1S2
80	Cc1csc(CNC(=O)c2ccc3c(c2)N=C(c2ccc(F)cc2)c2ccccc2S3)c1 [drawing 732]
107	O=C(NCc1cccnc1)c1ccc2c(c1)N=C(c1ccc(Cl)c(Cl)c1)c1ccccc1S2 [drawing 669]
105	CCN(CCNC(=O)c1ccc2c(c1)N=C(N1CCCCC1)c1ccccc1S2)c1ccccc1 [drawing 913]
73	CCOC(=O)c1ccc(C2=Nc3cc(C(=O)NCc4cccnc4)ccc3Sc3ccccc32)cc1 [drawing 850]
109	CCCNC(=O)c1ccc2c(c1)N=C(c1cccc(F)c1)c1ccccc1S2 [drawing 893]
95	CCOC(=O)N1CCC(NC(=O)c2ccc3c(c2)N=C(C2CCCCC2)c2ccccc2S3)CC1 [drawing 814]
96	C[C@@H]1CCC[C@H](C)N1NC(=O)c1ccc2c(c1)N=C(c1ccc(Cl)cc1)c1ccccc1S2 [drawing 1133]
123	CCCC1=Nc2cc(C(=O)NCCN(C)C3CCCCC3)ccc2Sc2ccccc21
97	O=C(NCc1ccccc1)c1ccc2c(c1)N=C(C1CCCCC1)c1ccccc1S2 [drawing 877]
123	CC(C)CNC(=O)c1ccc2c(c1)N=C(c1ccc(Cl)cn1)c1ccc(F)cc1S2 [drawing 558]
75	O=C(NN1CCOCC1)c1ccc2c(c1)N=C(c1ccc(Cl)cc1)c1ccccc1S2
115	O=C(NN1CCCCC1)c1ccc2c(c1)N=C(c1ccccc1)c1ccccc1S2 [drawing 897]
105	CCN(CCNC(=O)c1ccc2c(c1)N=C(C1CCCCC1)c1ccccc1S2)c1ccccc1 [drawing 865]
67	O=C(NCc1cccnc1)c1ccc2c(c1)N=C(c1ccccn1)c1ccccc1S2
52	O=C(NC1CCCC1)c1ccc2c(c1)N=C(c1ccc(Cl)cc1Cl)c1ccccc1S2
88	CCCNC(=O)c1ccc2c(c1)N=C(c1ccc(Cl)s1)c1ccccc1S2 [drawing 675]
109	O=C(NC1CCCCC1)c1ccc2c(c1)N=C(c1ccccc1F)c1ccccc1S2 [drawing 740]
71	COCCNC(=O)c1ccc2c(c1)N=C(c1ccccn1)c1ccccc1S2
81	CC(NC(=O)c1ccc2c(c1)N=C(c1ccc(F)cc1)c1ccccc1S2)c1ccccc1 (centres unmarked) [drawing 760]
100	O=C(NOc1cccc(Cl)c1)c1ccc2c(c1)N=C(C1CCCCC1)c1cc(F)ccc1S2
108	O=C(NCc1cccs1)c1ccc2c(c1)N=C(c1cccc(Cl)c1)c1ccccc1S2 [drawing 573]
101	O=C(NCCc1ccccn1)c1ccc2c(c1)N=C(c1ccc(F)cc1)c1ccccc1S2 [drawing 1145]
103	CCCNC(=O)c1ccc2c(c1)N=C(c1ccc(Cl)cc1)c1ccccc1S2 [drawing 799]

Structure (SMILES)	Emax [%]
CCCC1=Nc2cc(C(=O)NCc3ccc(OC)cc3)ccc2Sc2ccccc21	96
CCCC1=Nc2cc(C(=O)NCCc3ccc(Cl)cc3)ccc2Sc2ccccc21 [drawing 1003]	110
CCCCN(C)C(=O)c1ccc2c(c1)N=C(c1cccc(Cl)c1)c1ccccc1S2	82
O=C(NN1CCCCC1)c1ccc2c(c1)N=C(c1cccc(F)c1)c1ccccc1S2 [drawing 929]	111
C[C@@H]1CCC[C@H](C)N1NC(=O)c1ccc2c(c1)N=C(c1cccc(Cl)c1)c1ccccc1S2 [drawing 847]	100

same assay, conditions: pIC50, Appendix A; R-SAT CB1; receptor form (mutant or wild-type) not stated

Structure (SMILES)	IC50 [nM]
CCCC1=Nc2cc(C(=O)NCc3ccc(OC)cc3)ccc2Sc2ccccc21	25.1
CCCC1=Nc2cc(C(=O)NCCc3ccc(Cl)cc3)ccc2Sc2ccccc21 [drawing 1003]	25.1
CCCCN(C)C(=O)c1ccc2c(c1)N=C(c1cccc(Cl)c1)c1ccccc1S2	79.4
O=C(NN1CCCCC1)c1ccc2c(c1)N=C(c1cccc(F)c1)c1ccccc1S2 [drawing 929]	15.8
C[C@@H]1CCC[C@H](C)N1NC(=O)c1ccc2c(c1)N=C(c1cccc(Cl)c1)c1ccccc1S2 [drawing 847]	12.6
